# Patent EP3822285A1, “VARIANT NISIN PEPTIDES” (University College Cork-National University of Ireland, Cork, priority 2019, dated 2021)
# Values joined by “and” are separate entries in the source; they are usually repeats but may differ in a detail not shown here. Identical values can stand only once. Marks after values point to notes of the source that are not given here.
# Legend:
# Format in all cases: cell-based
# Thermus scotoductus SE-1 = experiment: Agar diffusion assay with cell free supernatant of producing strains; conditions: zone diameter relative to Nisin A wild type (100)
# Method: (§1) Agar diffusion assays were carried out in triplicate using nisin producing and indicator (T. thermophilus HB27 and T. scotoductus Se-1) strains. Both the producer and indicator strains were cultured as per conditions described above. One ml of overnight culture of indicators were added to 50ml of molten Castenholz agar, briefly swirled and poured. Wells were made using sterile glass pipette. To generate cell free supernatant from nisin producing strains, 10 mls of overnight cultures of the strains were centrifuged at 950g for 20 mins. The cell free supernatant was transferred to a sterile tube. 50 µl of cell free supernatant was added to wells described above. Plates were incubated at 55°C for 3 days and the zone of clearance measured.
# (§2) The cell free supernatant of nisin A and nisin variant producing L. lactis was used to determine the bioactivity of these lantibiotics against T. thermophilus HB27 and T. scotoductus SE-1 using agar diffusion assays, with the zone of clearance representing the bioactivity of the producing strain (i.e., representing a combination of the amount of the peptide produced and the specific activity of that peptide). […] Among the variants tested were those with altered N-terminal domains. The N-terminal domain of nisin is important for binding with the pyrophosphate moiety of lipid II to mediate pore formation in the cell membrane. Lysine (K) at position 12, which serves as a small flexible region between ring B and C, and is one of among the 5 positively charged residues (K12, K22, K34, H27, […]) of nisin A that contributes to its cationic nature and its attraction to the cell envelope.
# [1] = system: Thermus thermophilus HB27; experiment: as above; conditions: zone diameter relative to Nisin A wild type (100)
# Method: as §1, §2
# T. scotoductus SE-1 = experiment: Minimum inhibitory concentration assay (Thermus); conditions: pure peptide, mean of triplicate assays
# Method: (§3) Minimum inhibitory concentration (MIC) determinations for gram negative Thermus strains were carried out in triplicate in round bottom microtitre plates (Corning). 96 well microtitre plates were pre-treated with bovine serum albumin (BSA) prior to addition of the peptides. Briefly, to each well of the microtire plates 200 µl of d.H2O (filtered with 0.2 µm filter) containing 1% (w/w) BSA was added and incubated at 37°C for 30 mins. The wells were washed with 200 µl of IX phosphate buffered saline (PBS) for 2 times after removing 1% BSA d.H2O. 100 µl of growth media, i.e., Castenholz, was added to each well. […] Target strains were grown overnight as per conditions mention above, 0.5 ml of overnight was subcultured in to 10 mls of fresh Castenholz medium and allowed to grow to an OD600 of ∼0.5. 20µl of this subculture was added to 980µl of media, 150µl of this dilution added to 14.85 ml of growth media. 100µl of this dilution added to each well resulting in a final inoculum of ∼10^5 cfu/ml in 200µl. The plates were incubated at 55° C for 3 days and the MIC was determined as the lowest concentration at which no growth was visible.
# (§4) The bioactivity of cell-free supernatant can be influenced by altered diffusion rates, solubility, production or specific activity. To determine to what extent, if any, the bioactivity noted above is due to increased specific activity, nisin A (control) and the derivatives were purified and their molecular weights confirmed by MALDI TOF mass spectrometry (Table: 6) (Figure: 4). These peptides were used to perform minimum inhibitory concentration assays against six Thermus strains, i.e., T. thermophilus HB27, T. scotoductus SE-1, T. rehai, T. oshimai, T. aquaticus and T. brockianus.
# T. brockianus = experiment: Minimum inhibitory concentration assay (Thermus); conditions: pure peptide, mean of triplicate assays
# Method: as §3, §4
# T. rehai = experiment: Minimum inhibitory concentration assay (Thermus); conditions: pure peptide, mean of triplicate assays
# Method: as §3, §4
# T. aquaticus = experiment: Minimum inhibitory concentration assay (Thermus); conditions: pure peptide, mean of triplicate assays
# Method: as §3, §4
# T. thermophilus HB27 = experiment: Minimum inhibitory concentration assay (Thermus); conditions: for MIC: pure peptide, mean of triplicate assays
# Method: as §3, §4
# T. oshimai = experiment: Minimum inhibitory concentration assay (Thermus); conditions: pure peptide, mean of triplicate assays
# Method: as §3, §4
Compound,% of wild type (Thermus scotoductus SE-1),% difference [1],MIC (T. scotoductus SE-1),MIC (T. brockianus),MIC (T. rehai),MIC (T. aquaticus),MIC (T. thermophilus HB27),MIC (T. oshimai),fold better activity than nisin A (T. thermophilus HB27)
C=C(NC(=O)[C@@H](NC(=O)[C@H](Cc1c[nH]cn1)NC(=O)[C@@H](NC(=O)[C@H](CO)NC(=O)[C@@H]1CS[C@@H](C)[C@H]2NC(=O)[C@H](C)NC(=O)[C@H](NC(=O)[C@H](CCCCN)NC(=O)[C@H](CCC(N)=O)NC(=O)[C@H](CC(N)=O)NC(=O)[C@@H]3CS[C@@H](C)[C@@H](NC(=O)[C@H](CCCCN)NC(=O)[C@@H]4CS[C@@H](C)[C@@H](NC(=O)[C@@H]5CSC[C@@H](NC(=O)/C(=C/C)NC(=O)[C@@H](N)[C@@H](C)CC)C(=O)N[C@@H]([C@@H](C)CC)C(=O)NC(=C)C(=O)N[C@@H](CC(C)C)C(=O)N5)C(=O)N5CCC[C@H]5C(=O)NCC(=O)N4)C(=O)NCC(=O)N[C@@H](C)C(=O)N[C@@H](CC(C)C)C(=O)N[C@@H](CCSC)C(=O)NCC(=O)N3)[C@H](C)SC[C@H](NC2=O)C(=O)N[C@@H](Cc2c[nH]cn2)C(=O)N1)[C@@H](C)CC)C(C)C)C(=O)N[C@@H](CCCCN)C(=O)O [M21Q],124* (0.05) %,123%,0.0625 µM,0.0156 µM,13 µg/L and 0.0039 µM,26.1 µg/L and 0.0078 µM,0.0039 µM,6.5 µg/L and 0.00195 µM,–
C=C(NC(=O)[C@@H](NC(=O)[C@H](Cc1c[nH]cn1)NC(=O)[C@@H](NC(=O)[C@H](CO)NC(=O)[C@@H]1CS[C@@H](C)[C@H]2NC(=O)[C@H](C)NC(=O)[C@H](NC(=O)[C@H](CCCCN)NC(=O)[C@H](Cc3ccc(O)cc3)NC(=O)[C@H](CC(N)=O)NC(=O)[C@@H]3CS[C@@H](C)[C@@H](NC(=O)[C@H](CCCCN)NC(=O)[C@@H]4CS[C@@H](C)[C@@H](NC(=O)[C@@H]5CSC[C@@H](NC(=O)/C(=C/C)NC(=O)[C@@H](N)[C@@H](C)CC)C(=O)N[C@@H]([C@@H](C)CC)C(=O)NC(=C)C(=O)N[C@@H](CC(C)C)C(=O)N5)C(=O)N5CCC[C@H]5C(=O)NCC(=O)N4)C(=O)NCC(=O)N[C@@H](C)C(=O)N[C@@H](CC(C)C)C(=O)N[C@@H](CCSC)C(=O)NCC(=O)N3)[C@H](C)SC[C@H](NC2=O)C(=O)N[C@@H](Cc2c[nH]cn2)C(=O)N1)[C@@H](C)CC)C(C)C)C(=O)N[C@@H](CCCCN)C(=O)O [M21Y],115%,115%,0.0625 µM,0.0312 µM,13.2 µg/L and 0.0039 µM,6.6 µg/L and 0.00195 µM,13.2 µg/L and 0.0039 µM,13.2 µg/L and 0.0039 µM,two-fold
C=C(NC(=O)[C@@H](NC(=O)[C@H](Cc1c[nH]cn1)NC(=O)[C@@H](NC(=O)[C@H](CO)NC(=O)[C@@H]1CS[C@@H](C)[C@H]2NC(=O)[C@H](C)NC(=O)[C@H](NC(=O)[C@H](CCCCN)NC(=O)[C@H](CCSC)NC(=O)[C@@H]3CCCN3C(=O)[C@@H]3CS[C@@H](C)[C@@H](NC(=O)[C@H](CCCCN)NC(=O)[C@@H]4CS[C@@H](C)[C@@H](NC(=O)[C@@H]5CSC[C@@H](NC(=O)/C(=C/C)NC(=O)[C@@H](N)[C@@H](C)CC)C(=O)N[C@@H]([C@@H](C)CC)C(=O)NC(=C)C(=O)N[C@@H](CC(C)C)C(=O)N5)C(=O)N5CCC[C@H]5C(=O)NCC(=O)N4)C(=O)NCC(=O)N[C@@H](C)C(=O)N[C@@H](CC(C)C)C(=O)N[C@@H](CCSC)C(=O)NCC(=O)N3)[C@H](C)SC[C@H](NC2=O)C(=O)N[C@@H](Cc2c[nH]cn2)C(=O)N1)[C@@H](C)CC)C(C)C)C(=O)N[C@@H](CCCCN)C(=O)O [N20P],115%,97%,0.125 µM,0.0625 µM,0.0625 µM,0.0156 µM,0.0156 µM,0.0625 µM,–
C=C(NC(=O)[C@@H](NC(=O)[C@H](Cc1c[nH]cn1)NC(=O)[C@@H](NC(=O)[C@H](CO)NC(=O)[C@@H]1CS[C@@H](C)[C@H]2NC(=O)[C@H](C)NC(=O)[C@H](NC(=O)[C@H](CCCCN)NC(=O)[C@H](CCSC)NC(=O)[C@H](CO)NC(=O)[C@@H]3CS[C@@H](C)[C@@H](NC(=O)[C@H](CCCCN)NC(=O)[C@@H]4CS[C@@H](C)[C@@H](NC(=O)[C@@H]5CSC[C@@H](NC(=O)/C(=C/C)NC(=O)[C@@H](N)[C@@H](C)CC)C(=O)N[C@@H]([C@@H](C)CC)C(=O)NC(=C)C(=O)N[C@@H](CC(C)C)C(=O)N5)C(=O)N5CCC[C@H]5C(=O)NCC(=O)N4)C(=O)NCC(=O)N[C@@H](C)C(=O)N[C@@H](CC(C)C)C(=O)N[C@@H](CCSC)C(=O)NCC(=O)N3)[C@H](C)SC[C@H](NC2=O)C(=O)N[C@@H](Cc2c[nH]cn2)C(=O)N1)[C@@H](C)CC)C(C)C)C(=O)N[C@@H](CCCCN)C(=O)O [N20S],112%,119%,0.3125 µM,0.0156 µM,0.00195 µM,0.0078 µM,0.0039 µM,0.000975 µM,–
